# Source: US8501237B2, “Formulations of water insoluble or poorly water soluble drugs in lipidated glycosaminoglycan particles and their use for diagnostics and therapy” (Tel-Aviv University Future Technology Development L.P., priority 2004, dated 2013)
# Like-named read-outs stand apart in the source and are kept apart here.
# Legend:
# [1] = test system: SNU-251 cells; test: Cytotoxicity in vitro (MTT or SRB), SNU-251; type: cell-based; settings: Homo sapiens
# Description: (§1) Cytotoxicity of paclitaxel and of gagomer-encapsulated paclitaxel was evaluated over a matrix of drug-gagomer formulations (see Examples 1, 2 and 3), cell lines and treatment protocols, for the drug concentration range spanning from 1 nM to 100 μM.
# (§2) Twenty four hours prior to an experiment, cells of the desired line were seeded onto 96-well multiwell culture plates at densities in the range of 5×10^3 cells/well. The experiments were initiated on sub-confluent monolayers. Two protocols were used:
# (§3) (I) Short protocol. The cells were incubated with the treatment media for 4 hours, at the end of which the treatment media was aspirated, the cells washed and incubated for 44 hours in drug-free serum-supplemented cell growth media. Termination was 48 hours from start.
# (§4) (II) Long protocol: the cells were incubated in the treatment media for 48 hours. Upon termination, in either protocol, cell viability was determined in each well using either the MTT or the SRB assay method.
# (§5) The rationale for the two protocols, the long and the short, is as follows: The long protocol is the traditional one used for in vitro comparisons of cytotoxicity among different drug formulations. The cells are incubated with the treatment formulations for periods usually within the 24-72 hour time span, and all formulations are incubated for the same time. […]
# [2] = test system: PANC-1 cells; test: Cytotoxicity in vitro (MTT or SRB), PANC-1; type: cell-based; settings: Homo sapiens
# Description: as §1, §2, §3, §4, §5
# [3] = test system: D122 cells; test: Cytotoxicity in vitro (MTT or SRB), D122; type: cell-based; settings: Mus musculus
# Description: as §1, §2, §3, §4, §5
# [4] = test system: C-26 cells; test: Cytotoxicity in vitro (MTT or SRB), C-26; type: cell-based; settings: Mus musculus
# Description: as §1, §2, §3, §4, §5
# [5] = test system: B16F10.9 cells; test: Cytotoxicity in vitro (MTT or SRB), B16F10.9; type: cell-based, mouse
# Description: as §1, §2, §3, §4, §5
# [6] = test system: B16F10.9 cultures; test: Cytotoxicity before and after sterilization (autoclaving) in B16F10.9 cultures; type: cell-based; settings: Mus musculus
# Description: Aqueous suspensions of TX-GAG particles were prepared according to the scheme of FIG. 7, up to and including step 5. Aqueous suspensions of paclitaxel alone (i.e., free paclitaxel) were also prepared. Samples were set aside, from both the TX-GAG and the free paclitaxel, and the remainder of each system was subjected to the following sterilization process: 12 minutes of autoclaving at 120° C. A critical question of whether this sterilization process is feasible for the TX-GAG formulations, is retention of drug activity. Therefore, the original samples set aside prior to the sterilization process, as well as the samples that underwent the process, were tested for their cytotoxicity, in B16F10.9 cultures, as described in Example 7.
# [7] = 4 hours treatment, then 44 hours drug-free media, read-out: IC50 short protocol
# [8] = 48 hours incubation with treatment media, read-out: IC50 long protocol
compound,measurement,setting,value
"CC(=O)O[C@H]1C(=O)[C@@]2(C)[C@H]([C@H](OC(=O)c3ccccc3)[C@]3(O)C[C@H](OC(=O)[C@H](O)[C@@H](NC(=O)c4ccccc4)c4ccccc4)C(C)=C1C3(C)C)[C@]1(OC(C)=O)CO[C@@H]1C[C@@H]2O [Free Paclitaxel, paclitaxel]",IC50,[1]; [7],600 nM
same,IC50,[1]; [8],250 nM
same,IC50,[2]; [7],300 nM
same,IC50,[2]; [8],20 nM
same,IC50,[3]; [7],900 nM
same,IC50,[3]; [8],250 nM
same,IC50,"[4]; C26, 4 hours treatment, then 44 hours drug-free media, read-out: IC50 short protocol",3000 nM
same,IC50,"[4]; C26, 48 hours incubation with treatment media, read-out: IC50 long protocol",3500 nM
same,IC50,"[5]; Mus musculus, B16F10.9, ethanol as the lipid solvent, 4 hours treatment, then 44 hours drug-free media (Table 6), read-out: IC50 short protocol",1800 nM
same,cytotoxic activity after heating of ethanolic solutions,"[5]; ethanolic paclitaxel solutions heated at 40-70° C., same cytotoxicity assay",did not impair the drug's cytotoxic activity
same,IC50,[6]; after sterilization: 12 minutes of autoclaving at 120° C. (FIG. 10),~300 nM
same,IC50,[6]; before sterilization (FIG. 10),~300 nM
